The text below walks through data of patent US20080319001A1, “Cancer Treatment Using Specific 3,6,9-Substituted Acridines” (priority 2005, published 2008).

Test [1] concerns human telomerase. The settings on record: Read et al. 2001; Harrison et al. 2003; Schultes et al. 2004; cited from earlier work.
Test [2] relates to A549-derived xenografts. Description: A549 xenograft combination study. The class given is in vivo, mouse. The settings on record: single agent (AS1410 1 mg/kg or cisplatin 6 mg/kg), after approximately 60 days. On the procedure:
AS1410 was reconstituted in 0.9% saline B.P. to the required final concentration (0.331 and 0.0993) mg/ml of AS1410 succinate salt for intravenous administration).
The xenografts were prepared from the lung carcinoma A549 (ATCC Number CCL-185). Cells were grown in accordance with standard operating procedures and established methodology for this cell line to provide 5×10^6 cells per mouse.
A549-derived xenografts were established in 50 female nu/nu MF1 mice respectively by subcutaneous injection into the right flank of each mouse (5×10^6 cells in 100 μl phosphate buffered saline).
Animals were checked regularly until visible tumours appeared. Tumours were then measured in accordance with the relevant SOP regularly and tumour volume calculated using the formula: […]
Once the tumours were established, the mice were allocated into groups of 9 mice using a randomization procedure based on stratified xenograft volume.
Day 0 is defined as the day on which the average tumour volume is between 0.04 to 0.1 cm^3. Relative tumour volume on Day 0 is defined as 1.
Each mouse was observed and tumours measured until the xenografts tripled (3V0) in volume compared with volume on the day of treatment (V0). The elapsed period is the volume tripling time (VTT).
AS1410 was given by slow bolus intravenous injection. For AS1410 a dose volume 5 μl/g bodyweight was used. Control mice were untreated. […]

Regarding `Nc1ccc(Nc2c3ccc(NC(=O)CCN4CCCC4)cc3nc3cc(NC(=O)CCN4CCCC4)ccc23)cc1` [BR-ACO-20], the “in vitro inhibitory activity against human telomerase” value in test [1] is given as “potent in vitro inhibitory activity”.

As for `N.N.[Cl][Pt][Cl]` [cisplatin, cis-diaminedichloroplatinum(II)], in test [2], the relative tumour volume entry is on record as “about 5”.
